Source: patent publication US7279497B2, “Benzopyran derivatives substituted with secondary amines including imidazole, their preparation and pharmaceutical compositions containing them” (Korea Research Institute of Chemical Technology, priority 2002, dated 2007)

Tests used:
isolated rat aorta = test: Vasorelaxation effects on isolated blood vessels (methoxamine induced vasoconstriction); conditions: rat aorta constricted with methoxamine (3 μM)
Procedure: The following experiment was conducted to examine whether the compounds of the formula 1 have vasorelaxation effects.
Male Sprague-Dawly rats (350-450 g, obtained from the Experimental Animal Team of the Korea Research Institute of Chemical Technology) were knocked unconscious by hitting the occipital region, sacrificed by cervical dislocation, and underwent thoracotomy. After being quickly removed, the thoracic aorta was deprived of the adipose tissue and cut into aortic rings of 3 mm width. The aorta was lightly rubbed with a modified Krebs Henseleit buffer (Physiological Salt Solution, PSS) soaked cotton club to remove the inner epithelial layer therefrom. While being suspended in an organ bath containing a physiological buffer, the vascular tissue was allowed to equilibrate under a resting tension of 2 g and then, stand for 1 hour at 37° C. for stabilization with a supply of a carbogen consisting of 95% O2-5% CO2.
Thereafter, the vascular tissue was constricted with 10^−5 M phenylephrine and washed several times with PSS and this procedure was repeated again to ensure the stable reactivity of vascular smooth muscle to repetitive constriction/dilatation.
In addition, 3×10^−6 M methoxamine was used to induce an intensive constriction in the vascular smooth muscle. When the vasoconstriction induced by the methoxamine reached and maintained a maximum, test compounds and controls were cumulatively added to the organ baths in concentrations of 1, 3, 10 and 30 μM so as to induce vasodilatation. Cromakalim, BMS-180448, and BMS-191095 were used as the controls.
Following the addition of test compounds, the change in the maximal constriction induced by methoxamine was calculated to plot a concentration-relaxation response curve. Through a linear regression analysis, IC50, the drug concentration at which the vascular tissue is 50% dilated, was obtained for each compound.

ischemic hearts = test: Cardioprotective activity in ischemic heart model of anesthetized rats; conditions: Rat in vivo, 0.3 mg/kg i.v.
Procedure: In order to determine whether the compounds of formula 1 are protective for ischemic hearts, experiments determining the anti-ischemic effects of the compounds on rats were conducted as follows. Male rats (350-450 g, obtained from the Experimental Animal Team of the Korea Research Institute of Chemical Technology) were anesthetized by the intraperitoneal injection of pentobarbital at a dose of 75 mg/kg. After trachetomy, the rats were rendered to respire artificially at a rate of 60/min with a stroke volume of 10 ml/kg. Cannulars were inserted into the fermoral vein and the fermoral artery and used for drug administration and blood pressure measurement, respectively. In the ischemic myocardial injury models, the body temperature has an important influence on the results. To avoid the change in the body temperature, a body temperature measuring probe was inserted into the rectum of each rat and the body temperature was constantly kept at 37° C. with the aid of a homeothermic blanket control unit. Afterwards, during testing, a continuous measurement was made of the mean arterial blood pressures and heart rates from the rats. For the measurement of the blood pressure, a pressure transducer (Statham P23XL, Grass Ins., MA, U.S.A.) was used. The heart rate was measured by a tachometer (ECG/RATE Coupler, Hugo Sachs Electronic, German) identified as Biotachometer. In addition, all of the changes occurring were continuously recorded through the Gould 2000 chart recorder ([…] Linearcorder W R 3310, Hugo Sachs Electronic). The left coronary artery was occluded according to the Selye H. method as follows. The rats underwent a left thoracotomy operation for partial opening of the chest and the right-side chest was pressurized by the middle finger of the left hand to push the heart out. Immediately after the left anterior descending coronary artery hereinafter referred to as (LAD) was carefully stitched using a suture needle with 5-0 silk ligature, the heart was then repositioned in the thoracic cavity while both ends of the ligature were situated outside. The opposite ligature ends were passed through a PE tube (PE100, 2.5 cm) and allowed to stand loose for 20 min for stabilization. Via the cannula inserted into the femoral vein, vehicles or drugs were administered into the rats which were rendered to stand for 30 min in order to sufficiently elicit the efficacies of the drugs. […] From the images input into the computer, the area of the normal blood stream tissue region which appeared blue in a computer monitor and the area which appeared colorless were measured. The percentage of the colorless area to the total area of each slice was calculated and multiplied by the weight of each slice to determine the area at risk (AAR) of each slice. […]

isolated rat hearts = test: Cardioprotective activity in isolated ischemic rat heart (Langendorff); conditions: 10 μM
Procedure: In order to determine whether the compounds of the chemical formula 1 are protective for ischemic hearts in vitro, experiments determining the anti-ischemic effects of the compounds on isolated rat hearts were conducted as follows.
For all in vitro studies, isolated rat hearts were used according to the published methods after some modification [HJ Ring, Arzneim.-Forsch./Drug Res. 39 (II), 1535 (1989): T. Krzeminski, et al., J. Pharmacological Methods, 25, 95, (1991)]
Male Sprague-Dawley rats weighing 300-450 g were anesthetized with sodium pentobarbital (100 mg/kg, i.p.). The tail vein was injected with heparin (1,000 U/kg) and then the trachea was intubated. While rats were mechanically ventilated with a rodent ventilator (Model 7025, Ugobasile, Italy), their hearts were perfused in situ with oxygenated modified Krebs-Henseleit bicarbonate buffer (described herein) by retrograde aortic cannulation. The hearts were then excised and moved to a Langendorff apparatus (H.S.E., Germany), where they were perfused with oxygenated modified Krebs-Henseleit bicarbonate buffer containing (in mM) NaCl 116, NaHCO3 24.9, KCl 4.7, MgSO4 1.1, KH2PO4 1.17, CaCl2 2.52, glucose 8.32 and pyruvate 2.0 at a constant perfusion pressure (85 mm Hg). A latex balloon filled with solvent (ethanol:water=1:1 (v/v)) and attached to a metal cannula was placed in the left ventricle through pulmonary vein and connected to a Isotec pressure transducer (H.S.E., Germany) for measurement of left ventricular pressure (LVP). The hearts were allowed to equilibrate for 15 min, at which time left ventricular end-diastolic pressure (EDP) was adjusted to 5 mm Hg and this balloon volume was maintained throughout the experiment. Then, baseline contractile function, heart rate (HR), and coronary flow (CF) (extracorporeal electromagnetic flow probe, Narco Bio-System, U.S.A.) were measured. Cardiac contractile function was calculated by subtracting LVEDP from LV peak systolic pressure (LVSP), yielding developed pressure (LVDP). Double product (DP), another important parameter for assessing cardiac performance, was calculated by multiplying HR by LVDP. Throughout the experiment, all these parameters were measured, and calculated before and 10 min after pretreatment with each compound and 30 min after the onset of reperfusion with buffer. Data on reperfusion DP were further expressed as the percentage to pretreatment DP.
After stabilization for 15 min, the hearts were pretreated for 10 min with respective drugs (10 μM, 0.04% DMSO) or vehicle (0.04% DMSO) before onset of global ischemia; test agents were administered directly into the oxygenator of the Langendorff apparatus immediately above the aortic root in a retrograde fashion as solutions in the perfusate. We then rendered the hearts globally ischemic by completely shutting off the perfusate for 30 min. Severity of ischemia was determined as the time to contracture (TTC, min) during global ischemia in which the first 5 mmHg increase in EDP was observed. Then, the hearts were reperfused and, 30 min later, contractile function (LVDP, DP) and cumulative reperfusion lactate dehydrogenase (LDH) release were measured. LDH was measured as a sensitive index for loss of cell viability with a kit supplied by Boerhinger Mannheim based on the technique of Wroblewski and LaDue [F. Wroblewski and J S. La Due, Proc Soc Exp Biol Med 90, 210, (1955)].

[1] = system: cerebral cortical neurons; test: Protective activity against iron-induced neuronal damage (LDH release); type: cell-based; conditions: Rattus norvegicus, Cortical neurone, FeSO4 50 μM, 24 hours
Procedure: In order to examine whether the compounds of the formula 1 suppress the iron-induced neuronal damage and death, experiments were conducted as follows.
From the brains of 17-18 day-old rat embryos, cerebral cortical neurons were isolated and then, cultured at 37° C. for 7-9 days in a 5% CO2 incubator. The cortical cell cultures were washed twice with a minimum essential medium (MEM) to reduce the serum concentration to 0.2% and pre-treated with test compounds at 30, 7.5, 1.875, and 0.469 μM of final concentrations, each for 30 min. The test compounds were dissolved in DMSO and diluted in a medium. At this time, the final concentration of DMSO was not allowed to exceed 0.2%. For a control group, only vehicle was applied.
After the pre-treatment with test compounds or vehicle, FeSO4 was added to a final concentration of 50 μM, and the cultures were maintained for 24 hours in a CO2 incubator. During incubation, lactate dehydrogenase (LDH) was released into the medium upon neuronal death by the oxidative toxicity of iron. The extent of neuronal damage was assessed by measuring the amount of LDH released into the media. The protective effect of the compounds of interest on neurons was evaluated by calculating the reduction rate of released LDH of treated group compared with that of the control group, and IC50 was calculated as the least linear regression analysis of dose-response curve.

SPF SD rats = conditions: rat, in vivo, po;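 also: Six-week-old animals, two per group, followed across an observation period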
[2] = system: HUVECs (Human umbilical vein endothelial cells); test: Inhibitory effects on HUVEC tube formation; type: cell-based;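 as to tube formation: from minus no inhibition up to plus-plus-plus complete inhibition versus vehicle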
Procedure: The Inhibitory effects of the compounds of the formula 1 on angiogenesis were meassured by the vascular tube formation assay of HUVECs (Human umbilical vein endothelial cells), which is one of the major angiogenic steps.
HUVECs were isolated from human umbilical vein, and cultured. HUVECs within passage 5 from confluent cultures were detached, and plated onto a layer of a bFGF (basic fibroblast growth factor)-reduced and polymerized Matrigel. Matrigel cultures were incubated with or without the compounds of formula 1, and the changes of cell morphology were captured through a phase contrast microscope and photographed.

rat brain homogenate = test: Inhibitory activity against iron-induced lipid peroxidation (MDA); type: biochemical; conditions: 30 μM, FeCl2 400 μm
Procedure: In order to examine whether the compounds of the formula 1 suppress the iron-induced lipid peroxidation, experiments were conducted as follows.
The rat brain was homogenized in a Krebs buffer (15 mM HEPES, 10 mM glucose, 140 mM NaCl, 3.6 mM KCl, 1.5 mM CaCl2, 1.4 mM KH2PO4, 0.7 mM MgCl2, pH 7.4) and the supernatant separated by centrifugation at 12,000 rpm for 10 min was used for further experiments. FeCl2 was added to a final concentration of 400 μm in the brain homogenate which was then allowed to stand at 37° C. for 30 min. for the facilitation of oxidation. Each of the test compounds was added at a concentration of 30 μM and vehicle was used as a control.
Iron facilitates the oxidation of the brain homogenate to produce malondialdehyde (MDA), a lipid peroxidation product. Thus, the lipid peroxidation was determined by MDA quantification. The inhibitory effect of the test compounds against the lipid peroxidation was evaluated by calculating MDA reduction rate of the test compounds compared with that of the control group.
Typically, the MDA quantification is achieved by reacting samples with 2-thiobarbituric acid (TBA) and measuring the absorbance at 530 nm. However, this method is unsuitable to treat samples on a large scale because of a boiling step. Thus, in this experiment, N-methyl-2-phenylindole was used instead of TBA. […] Bioxytech^R LPO-586 Kit was used for MDA quantification.

SMILES	IC50 (isolated rat aorta) [µM]	AAR/LV (%) (ischemic hearts)	IZ/AAR (%) (ischemic hearts)	LDVP × HR (%) (isolated rat hearts; 30 min reperfusion, % of pretreatment DP)	TTC (time to contracture) (isolated rat hearts; global ischemia) [min]	EDP (isolated rat hearts; reperfusion) [MmHg]	LDH (reperfusion release) (isolated rat hearts; reperfusion) [U/g]	inhibition at 30 µM ([1]; 30 μM, read-out: Neuroprotection inhibition % (LDH release)) [%]	IC50 ([1]; read-out: Neuroprotection IC50) [µM]	clinical symptoms, body weight and mortality (SPF SD rats)	inhibitory effect on HUVEC tube formation ([2]; 10 uM)	Tube formation ([2]; 10 μM)	inhibitory effect on HUVEC tube formation ([2]; 100 uM)	Tube formation ([2]; 100 μM)	% Inhibition of lipid peroxidation by iron (rat brain homogenate) [%]
CC1(C)Oc2ccc(C#N)cc2[C@@H](N=C(NC#N)Nc2ccc(Cl)cc2)[C@@H]1O [BMS-180448, reference compound]	1.38	38.8	39.1	67.6	27.8	16.5	17.2								
COC(OC)[C@@]1(C)Oc2ccc([N+](=O)[O-])cc2[C@H](N(Cc2ncc[nH]2)c2ccc(Cl)cc2)[C@H]1O [Example 2, (2S,3R,4S)-3,4-dihydro-2-dimethoxymethyl-3-hydroxy-2-methyl-6-nitro-4-[N-(4-chlorophenyl)-N-(1H-imidazol-2-ylmethyl)amino]-2H-1-benzopyran]								92	6.2	no significant changes	strong inhibition	++	complete inhibition	+++	
COC(OC)[C@@]1(C)Oc2ccc(N)cc2[C@@H](N(Cc2ncc[nH]2)c2ccc(Cl)cc2)[C@@H]1O [Example 24, (2S,3S,4R)-6-amino-3,4-dihydro-2-dimethoxymethyl-3-hydroxy-2-methyl-4-[N-(4-chlorophenyl)-N-(1H-imidazol-2-ylmethyl)amino]-2H-1-benzopyran]										no significant changes		+		+	83
COC(OC)[C@@]1(C)Oc2ccc(N)cc2[C@@H](N(Cc2ncc[nH]2)c2ccc(C(F)(F)F)cc2)[C@@H]1O [Example 25, (2S,3S,4R)-6-amino-3,4-dihydro-2-dimethoxymethyl-3-hydroxy-2-methyl-4-[N-(4-trifluoromethylphenyl)-N-(1H-imidazol-2-ylmethyl)amino]-2H-1-benzopyran]										no significant changes		+/−		+/−	97
